Data published in patent US4868204A, “Mycalamide compounds, compositions thereof and methods of preparation and use” (Harbor Branch Oceanographic Institution, Inc., priority 1988, dated 1989).
Read-outs that look alike come from different tables or passages of the source.

How the values were obtained:
[1] = tested on: polio vaccine virus Type I (PVI); assay type: cell-based
[2] = tested on: P388 mouse leukemia cell; experiment: in vitro P388 mouse leukemia cell assay; assay type: cell-based; details: 50% inhibition of cell replication vs untreated cultures
Description: Antitumor effectiveness of the compounds of the invention was evaluated using a standardized in vitro P388 mouse leukemia cell assay protocol disclosed in U.S. Pat. No. 4,731,366 with the antitumor activity being expressed in IC50 (concentration that results in 50% inhibition of cell replication normalized to untreated cultures) determined with a log-log transform of data and expressed as xx ng/ml. As an example, for mycalamide A the P388 assay value was […]

[3] = tested on: BSC cells
[4] = tested on: HSV; assay type: cell-based, Herpes simplex type 1 virus
[5] = tested on: P338 tumor; experiment: in vivo P388 tumor procedure in mice (% T/C)
Description: (§1) Antitumor effectiveness of mycalamide A was also evaluated using a standardized in vivo procedure by injecting mice with the test material starting 24 hours after P338 tumor implantation. A T/C value is calculated using the formula % T/C=Median survival of test group/Median survival of control group×100%, A T/C value above 130% is considered significant.

[6] = tested on: A59; set-up: species or system mice; details: mouse, in vivo, 0.1 mg/kg
[7] = tested on: mice; details: mouse, in vivo
[8] = tested on: B16 murine melanoma; experiment: in vivo B16 murine melanoma assay
Description: as §1
In vivo antitumor activity of mycalamide A was also tested with an B16 murine melanoma assay resulting in the following data: […]

[9] = tested on: antimitotic activity; details: British Pat. Nos. 1,078,049 and 932,875; cited from earlier work

C=C1CC(O)(C(O)C(=O)NC2OCOC3C2OC(CC(CO)OC)C(C)(C)C3OC)OC(C)C1C (centres unmarked) [Example 27, Pseudomycalamide B]
AV assay, PVI [1]: 4+ and - | P388 IC50 [2]: 1.8 ng/mL | AV assay, cytotoxicity [3]: - | AV assay, HSV [4]: 4+ and -

C=C1CC(OC)(C(O[Si](C)(C)C)C(=O)NC2OCOC3C2OC(CC(CO[Si](C)(C)C)O[Si](C)(C)C)C(C)(C)C3OC)OC(C)C1C (centres unmarked) [Example 15, Mycalamide A tris-trimethylsilylether]
AV assay, PVI [1]: 4+ and - | P388 IC50 [2]: 1.3 ng/mL | AV assay, cytotoxicity [3]: - | AV assay, HSV [4]: 4+ and -

C=C1CC(OC)(C(O)C(=O)NC2OCOC3C2OC(CC(CO[Si](C)(C)C)O[Si](C)(C)C)C(C)(C)C3OC)OC(C)C1C (centres unmarked) [Example 14, Mycalamide A 17,18-bis-trimethylsilylether]
AV assay, PVI [1]: 4+ | P388 IC50 [2]: 1.2 ng/mL | AV assay, HSV [4]: 4+

C=C1C[C@](OC)([C@H](O)C(=O)N[C@H]2OCO[C@H]3[C@@H]2O[C@H](C[C@H](O)CO)C(C)(C)[C@@H]3OC)O[C@H](C)[C@@H]1C [mycalamide A, Mycalamide A]
Median T/C % ([5]; 0.0012 mg/kg, 2nd series): 117% | Median T/C % ([5]; 0.0025 mg/kg, 1st series): 137% | Median T/C % ([5]; 0.0025 mg/kg, 2nd series): 122% | Median T/C % ([5]; 0.005 mg/kg, 1st series): 132% | Median T/C % ([5]; 0.005 mg/kg, 2nd series): 133% | Median T/C % ([5]; 0.01 mg/kg, 1st series): 116% | Median T/C % ([5]; 0.01 mg/kg, 2nd series): 156% | Median T/C % ([5]; 0.02 mg/kg, 1st series): Toxic | Median T/C % ([5]; 0.02 mg/kg, 2nd series): 106% | Cumulative mortality [6]: 0% | P388 IC50 [2]: 1.6 ng/mL | Cumulative mortality ([7]; 0.01 mg/kg, 48 h): 0% | Cumulative mortality ([7]; 0.01 mg/kg, 96 h): 0% | Cumulative mortality ([7]; 0.01 mg/kg, 144 h): 0% | Cumulative mortality ([7]; 0.01 mg/kg, 192 h): 0% | Cumulative mortality ([7]; 0.01 mg/kg, 240 h): 0% | Cumulative mortality ([7]; 0.01 mg/kg, 288 h): 0% | Cumulative mortality ([7]; 0.01 mg/kg, 336 h): 0% | Cumulative mortality ([7]; 0.1 mg/kg, 48 h): 0% | Cumulative mortality ([7]; 0.1 mg/kg, 96 h): 0% | Cumulative mortality ([7]; 0.1 mg/kg, 144 h): 0% | Cumulative mortality ([7]; 0.1 mg/kg, 192 h): 0% | Cumulative mortality ([7]; 0.1 mg/kg, 240 h): 0% | Cumulative mortality ([7]; 0.1 mg/kg, 288 h): 0% | Cumulative mortality ([7]; 0.1 mg/kg, 336 h): 0% | Cumulative mortality ([7]; 1 mg/kg, 48 h): 0% | Cumulative mortality ([7]; 1 mg/kg, 96 h): 0% | Cumulative mortality ([7]; 1 mg/kg, 144 h): 100% | Cumulative mortality ([7]; 1 mg/kg, 192 h): 100% | Cumulative mortality ([7]; 1 mg/kg, 240 h): 100% | Cumulative mortality ([7]; 1 mg/kg, 288 h): 100% | Cumulative mortality ([7]; 1 mg/kg, 336 h): 100% | Cures ([8]; 0.0625 mg/kg): 0 | Median T/C % ([8]; 0.0625 mg/kg): 197% | Cures ([8]; 0.125 mg/kg): 0 | Median T/C % ([8]; 0.125 mg/kg): 189% | Cures ([8]; 0.5 mg/kg): 0 | Median T/C % ([8]; 0.5 mg/kg): Toxic

COC1C2OCOC(NC(=O)C(O)C3(OC)CC(C)C(C)C(C)O3)C2OC(CC(O)CO)C1(C)C (stereo not drawn) [Example 22, 4β-dihydro mycalamide A]
P388 IC50 [2]: 0.8 ng·mL | AV assay, cytotoxicity [3]: -

COC(CO)CC1OC2C(NC(=O)C(O)C3(O)CC(C)C(C)C(C)O3)OCOC2C(OC)C1(C)C (stereo not drawn) [Example 26, 4α Dihydro pseudomycalamide B]
AV assay, PVI [1]: 4+ and - | P388 IC50 [2]: 3 ng/mL | AV assay, cytotoxicity [3]: - | AV assay, HSV [4]: 4+ and -

COC1C2OCOC(NC(=O)C(O)C3(O)CC(C)C(C)C(C)O3)C2OC(CC(O)CO)C1(C)C (stereo not drawn) [Example 23, 4β-dihydro pseudomycalamide A]
AV assay, PVI [1]: 4+ | P388 IC50 [2]: 4.2 ng/mL | AV assay, HSV [4]: 4+

C=C1C[C@](OC)([C@H](O)C(=O)N[C@@H](OC)[C@@H]2C[C@@H](O)C(C)(C)[C@@H](C[C@@H](COC)OC)O2)O[C@H](C)[C@@H]1C [Pederin, pederin]
antimitotic activity [9]: shows antimitotic activity

C=C1CC(OC)(C(O)C(=O)NC2OCOC3C2OC(CC(O)CO[Si](C)(C)C(C)(C)C)C(C)(C)C3OC)OC(C)C1C (centres unmarked) [Example 16, Mycalamide A 18-mono-t-butyl,dimethylsilylether]
AV assay, PVI [1]: 4+ and - | P388 IC50 [2]: 28.5 ng/mL | AV assay, cytotoxicity [3]: - | AV assay, HSV [4]: 4+ and -

COC1C2OCOC(NC(=O)C(O)C3(OC)CC(C)C(C)C(C)O3)C2OC(CC(O)CO)C1(C)C (stereo not drawn) [Example 19, 4α-Dihydro mycalamide A]
P388 IC50 [2]: 2.3 ng/mL | AV assay, HSV [4]: 4+ and -

COC1C2OCOC(NC(=O)C(O)C3(O)CC(C)C(C)C(C)O3)C2OC(CC(O)CO)C1(C)C (stereo not drawn) [Example 20, 4α-dihydro pseudomycalamide A]
P388 IC50 [2]: 10.5 ng/mL | AV assay, HSV [4]: 4+

C=C1CC(OC)(C(O)C(=O)NC2OCOC3C2OC(CC(CO[Si](C)(C)C)OC)C(C)(C)C3OC)OC(C)C1C (centres unmarked) [Example 17, Mycalamide B 18-mono-trimethylsilylether]
AV assay, PVI [1]: 4+ and - | P388 IC50 [2]: 0.08 ng/mL | AV assay, cytotoxicity [3]: - | AV assay, HSV [4]: 4+ and -
